The target of one assay is T1, human recombinant HDAC1 (Homo sapiens, UniProt Q13547).
T1 construct: purchased Enzo Life Science BML-SE456
The assay can be described thus: HDAC1 enzyme activity inhibition assay (in vitro, fluorimetric). Type of assay: biochemical. The settings on record: human recombinant HDAC1, fluorimetric kit, 30° C. 60 minutes. Summed up: (§1)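 IC50 values derive from fluorescence (Ex 360, Em 460) after developer treatment (30 min) of reactions of recombinant human HDAC1 or HDAC6 with 10 μM Fluor de Lys-SIRT1 substrate (60 min, 30 °C). Compounds were serially diluted 5-fold; 0.3 μg enzyme was used for HDAC1, with HDAC6 tested identically.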

Another assay deals with T2, human recombinant HDAC6 (Homo sapiens, UniProt Q9UBN7).
T2 construct: purchased Calbiochem 382180
T2 sequence (Q9UBN7 1-1215): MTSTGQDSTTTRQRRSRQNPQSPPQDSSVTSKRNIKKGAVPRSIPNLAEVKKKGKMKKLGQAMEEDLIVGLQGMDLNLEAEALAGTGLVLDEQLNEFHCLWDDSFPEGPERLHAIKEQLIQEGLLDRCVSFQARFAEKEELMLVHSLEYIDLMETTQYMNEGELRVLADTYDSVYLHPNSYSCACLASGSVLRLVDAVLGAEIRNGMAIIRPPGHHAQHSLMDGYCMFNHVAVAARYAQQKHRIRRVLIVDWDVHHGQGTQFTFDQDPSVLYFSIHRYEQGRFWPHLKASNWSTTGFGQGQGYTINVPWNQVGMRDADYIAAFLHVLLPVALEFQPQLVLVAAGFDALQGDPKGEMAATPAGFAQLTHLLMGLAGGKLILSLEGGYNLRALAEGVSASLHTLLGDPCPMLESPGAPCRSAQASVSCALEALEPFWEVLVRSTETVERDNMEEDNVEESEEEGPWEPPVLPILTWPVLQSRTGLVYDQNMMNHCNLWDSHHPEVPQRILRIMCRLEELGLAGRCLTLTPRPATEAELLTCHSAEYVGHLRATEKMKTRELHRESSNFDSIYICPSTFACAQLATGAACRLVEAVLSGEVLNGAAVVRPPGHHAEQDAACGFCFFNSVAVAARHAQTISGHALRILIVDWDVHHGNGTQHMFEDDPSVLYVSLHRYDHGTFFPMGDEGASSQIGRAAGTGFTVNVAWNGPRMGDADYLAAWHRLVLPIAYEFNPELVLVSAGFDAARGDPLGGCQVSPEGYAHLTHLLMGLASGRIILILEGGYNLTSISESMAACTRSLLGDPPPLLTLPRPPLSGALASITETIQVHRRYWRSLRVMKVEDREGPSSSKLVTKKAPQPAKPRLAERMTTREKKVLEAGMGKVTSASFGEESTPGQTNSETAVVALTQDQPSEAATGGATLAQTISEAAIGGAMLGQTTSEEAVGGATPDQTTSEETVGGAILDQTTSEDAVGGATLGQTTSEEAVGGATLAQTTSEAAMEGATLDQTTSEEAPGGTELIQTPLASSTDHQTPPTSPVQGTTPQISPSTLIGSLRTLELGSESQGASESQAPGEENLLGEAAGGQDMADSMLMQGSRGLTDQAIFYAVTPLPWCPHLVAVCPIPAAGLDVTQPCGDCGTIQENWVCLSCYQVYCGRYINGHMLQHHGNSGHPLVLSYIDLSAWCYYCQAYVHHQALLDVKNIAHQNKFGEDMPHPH
The assay can be described thus: HDAC6 enzyme activity inhibition assay (in vitro, fluorimetric). Particulars: for HDAC6 selectivity (fold): HDAC6 selectivity over HDAC1; for IC50: human recombinant HDAC6, fluorimetric kit, same protocol as HDAC1. The class given is biochemical. Summed up: as §1

T1 sequence (Q13547 whole entry): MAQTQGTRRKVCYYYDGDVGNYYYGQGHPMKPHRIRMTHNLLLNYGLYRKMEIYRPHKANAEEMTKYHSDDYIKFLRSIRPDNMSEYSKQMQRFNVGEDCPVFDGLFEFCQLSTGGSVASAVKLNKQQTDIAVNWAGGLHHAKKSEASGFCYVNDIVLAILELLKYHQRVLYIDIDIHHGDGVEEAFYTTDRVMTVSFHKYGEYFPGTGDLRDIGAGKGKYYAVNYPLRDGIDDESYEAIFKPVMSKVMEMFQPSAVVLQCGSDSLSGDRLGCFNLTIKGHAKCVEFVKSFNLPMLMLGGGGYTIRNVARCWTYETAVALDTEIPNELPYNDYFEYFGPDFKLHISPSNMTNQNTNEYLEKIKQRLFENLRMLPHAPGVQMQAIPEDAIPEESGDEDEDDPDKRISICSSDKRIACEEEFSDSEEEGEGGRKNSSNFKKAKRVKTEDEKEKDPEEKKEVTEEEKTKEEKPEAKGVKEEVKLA

Take `C[C@@H]1CN(Cc2ccc(-n3ccnc3)cc2)C[C@H](C)N1Cc1ccc(C(=O)NO)cc1` [Compound 301, 4-(((2S,6R)-4-(4-(1H-imidazol-1-yl)benzyl)-2,6-dimethylpiperazin-1-yl)methyl)-N-hydroxybenzamide]: the IC50 on human recombinant HDAC1 amounted to 2800 nM. Further, at human recombinant HDAC6, the “HDAC6 selectivity (fold)” value is given as 11 fold and the IC50 was 253 nM.
On the same counts, the results for `C[C@@H]1CN(Cc2ccc(C(=O)NO)cc2)C[C@H](C)N1C(=O)C1CCCO1` (stereo partly drawn) [Compound 402, 4-(((3R,5S)-3,5-dimethyl-4-(tetrahydrofuran-2-carbonyl)piperazin-1-yl)methyl)-N-hydroxybenzamide] are 5200 nM, 32 fold and 161 nM.
The like results for `CC(C)CCN1[C@H](C)CN(Cc2ccc(C(=O)NO)cc2)C[C@@H]1C` [Compound 270, N-hydroxy-4-(((3R,5S)-4-isopentyl-3,5-dimethylpiperazin-1-yl)methyl)benzamide] were, in that order, above 10000 nM, above 5 fold and 2220 nM.
The like results for `C[C@@H]1CN(Cc2ccc(C(=O)NO)cc2)C[C@H](C)N1Cc1ccccc1Cl` [Compound 127, 4-(((3R,5S)-4-(2-chlorobenzyl)-3,5-dimethylpiperazin-1-yl)methyl)-N-hydroxybenzamide] were, in that order, above 10000 nM, above 909 fold and 11 nM.
Regarding `C[C@@H]1CN(C(=O)c2ccc(Cl)cc2)C[C@H](C)N1Cc1ccc(C(=O)NO)cc1` [Compound 106, 4-(((2S,6R)-4-(4-chlorobenzoyl)-2,6-dimethylpiperazin-1-yl)methyl)-N-hydroxybenzamide], the IC50 on human recombinant HDAC1 is 7300 nM. Besides, on human recombinant HDAC6, the “HDAC6 selectivity (fold)” value came to 61 fold and the concentration for half-maximal inhibition (IC50) amounted to 119 nM.
For the molecule `C[C@@H]1CN(Cc2ccccc2)C[C@H](C)N1Cc1ccc(C(=O)NO)c(F)c1` [Compound 174, 4-(((2S,6R)-4-benzyl-2,6-dimethylpiperazin-1-yl)methyl)-2-fluoro-N-hydroxybenzamide], the results for the IC50 at human recombinant HDAC1 and at human recombinant HDAC6 were above 10000 nM and 97 nM, respectively. The “HDAC6 selectivity (fold)” value at human recombinant HDAC6 is reported as above 103 fold.
On the same counts, the results for `C[C@@H]1CN(Cc2ccc(C(=O)NO)cc2)C[C@H](C)N1C(=O)c1ccc(CN2CCOCC2)cc1` [Compound 458, 4-(((3R,5S)-3,5-dimethyl-4-(4-(morpholinomethyl)benzoyl)piperazin-1-yl)methyl)-N-hydroxybenzamide] are 6100 nM, 286 nM and 21 fold.
On the same counts, the results for `C[C@@H]1CN(C(=O)c2ccc(CCC(=O)NO)cc2)C[C@H](C)N1Cc1ccccc1` [Compound 824, 3-(4-((3R,5S)-4-benzyl-3,5-dimethylpiperazine-1-carbonyl)phenyl)-N-hydroxypropanamide] are 4100 nM, 180 nM and 22 fold.
The like results for `C[C@@H]1CN(Cc2ccc(C(=O)NO)cc2)C[C@H](C)N1CCCC(F)(F)F` [Compound 204, 4-(((3R,5S)-3,5-dimethyl-4-(4,4,4-trifluorobutyl)piperazin-1-yl)methyl)-N-hydroxybenzamide] were, in that order, above 10000 nM, 807 nM and above 12 fold.
Take `CC(C)CC(=O)N1[C@H](C)CN(Cc2ccc(C(=O)NO)cc2)C[C@@H]1C` [Compound 297, 4-(((3R,5S)-3,5-dimethyl-4-(3-methylbutanoyl)piperazin-1-yl)methyl)-N-hydroxybenzamide]: the half-inhibitory concentration (IC50) on human recombinant HDAC1 turned out to be 5600 nM. Moreover, on human recombinant HDAC6, the “HDAC6 selectivity (fold)” value is 62 fold and the IC50 was found to be 90 nM.
The like results for `C[C@@H]1CN(Cc2ccc(C(=O)NO)cc2)C[C@H](C)N1Cc1ccccc1C1=CCOCC1` [Compound 332, 4-(((3R,5S)-4-(2-(3,6-dihydro-2H-pyran-4-yl)benzyl)-3,5-dimethylpiperazin-1-yl)methyl)-N-hydroxybenzamide] were, in that order, 21900 nM, 207 fold and 106 nM.
For `C[C@@H]1CN(C(=O)c2cccc(Cl)c2)C[C@H](C)N1Cc1ccc(C(=O)NO)cc1` [Compound 107, 4-(((2S,6R)-4-(3-chlorobenzoyl)-2,6-dimethylpiperazin-1-yl)methyl)-N-hydroxybenzamide], the half-inhibitory concentration (IC50) on human recombinant HDAC1 amounted to 8300 nM; at human recombinant HDAC6, 103 nM. Besides, the “HDAC6 selectivity (fold)” value on human recombinant HDAC6 worked out at 81 fold.
The like results for `C[C@@H]1CN(C(=O)N2CCc3ccccc32)C[C@H](C)N1Cc1ccc(C(=O)NO)cc1` [Compound 197, N-hydroxy-4-(((2S,6R)-4-(indoline-1-carbonyl)-2,6-dimethylpiperazin-1-yl)methyl)benzamide] were, in that order, 2100 nM, 177 nM and 12 fold.
On the same counts, the results for `C[C@@H]1CN(Cc2ccc(C(=O)NO)cc2)C[C@H](C)N1C(=O)Nc1ccccc1` [Compound 159, (2S,6R)-4-(4-(hydroxycarbamoyl)benzyl)-2,6-dimethyl-N-phenylpiperazine-1-carboxamide] are 3600 nM, 33 nM and 109 fold.
On the same counts, the results for `C[C@@H]1CN(Cc2ccc(C(=O)NO)cc2)C[C@H](C)N1C(=O)Cc1cccc(Cl)c1` [Compound 224, 4-(((3R,5S)-4-(2-(3-chlorophenyl)acetyl)-3,5-dimethylpiperazin-1-yl)methyl)-N-hydroxybenzamide] are 1700 nM, 120 nM and 14 fold.
Turning to `C[C@@H]1CN(Cc2ccc(C(=O)NO)cc2)C[C@H](C)N1C(=O)c1cccc(-c2ccncc2)c1` [Compound 245, 4-(((3R,5S)-3,5-dimethyl-4-(3-(pyridin-4-yl)benzoyl)piperazin-1-yl)methyl)-N-hydroxybenzamide], the IC50 on human recombinant HDAC1 came to 3600 nM. Besides, on human recombinant HDAC6, the “HDAC6 selectivity (fold)” value is listed as 31 fold and the IC50 was 116 nM.
The like results for `C[C@@H]1CN(Cc2ccc(-c3ccco3)cc2)C[C@H](C)N1Cc1ccc(C(=O)NO)cc1` [Compound 303, 4-(((2S,6R)-4-(4-(furan-2-yl)benzyl)-2,6-dimethylpiperazin-1-yl)methyl)-N-hydroxybenzamide] were, in that order, 2900 nM, 3 fold and 1110 nM.
On the same counts, the results for `CC(c1ccccc1)N1C[C@@H](C)N(Cc2ccc(C(=O)NO)cc2)[C@@H](C)C1` (stereo partly drawn) [Compound 220, 4-(((2S,6R)-2,6-dimethyl-4-(1-phenylethyl)piperazin-1-yl)methyl)-N-hydroxybenzamide] are 15900 nM, 13 fold and 1230 nM.
On the same counts, the results for `C[C@@H]1CN(C(=O)c2cccc(-c3ccco3)c2)C[C@H](C)N1Cc1ccc(C(=O)NO)cc1` [Compound 257, 4-(((2S,6R)-4-(3-(furan-2-yl)benzoyl)-2,6-dimethylpiperazin-1-yl)methyl)-N-hydroxybenzamide] are 1600 nM, 6 fold and 255 nM.
As to `C[C@@H]1CN(Cc2ccc(C(=O)NO)cc2)C[C@H](C)N1Cc1cccc(-c2cccnc2)c1` [Compound 344, 4-(((3R,5S)-3,5-dimethyl-4-(3-(pyridin-3-yl)benzyl)piperazin-1-yl)methyl)-N-hydroxybenzamide], the IC50 at human recombinant HDAC1 is 5800 nM; at human recombinant HDAC6, 12 nM. Further, the “HDAC6 selectivity (fold)” value on human recombinant HDAC6 was found to be 481 fold.
The like results for `C[C@@H]1CN(Cc2ccc(C(=O)NO)cc2)C[C@H](C)N1Cc1cccc(-c2ccncc2)c1` [Compound 345, 4-(((3R,5S)-3,5-dimethyl-4-(3-(pyridin-4-yl)benzyl)piperazin-1-yl)methyl)-N-hydroxybenzamide] were, in that order, 5500 nM, 16 nM and 341 fold.

These data come from patent US10287255B2, “Compounds as histone deacetylase 6 inhibitors and pharmaceutical compositions comprising the same” (CHONG KUN DANG PHARMACEUTICAL CORP., priority 2014, dated 2019).
